The IC50 is the concentration that inhibits the measured activity by half. Higher therefore signals a need for much substance.

For 4 molecules, IC50 results are on record in BindingDB's records for patent US20260028352 (Suzhou Langrui Biopharmaceutical, 2026).

SMILES strings stand for the structures.

Assay [1] addresses High affinity nerve growth factor receptor NTRK1 [F589L] (UniProt P04629, F589L). In words: Inhibitory Activity of Compounds Against TRKA and TRKA(F589L) Kinases. Here is the method: (§1) Kinase Assay Process: 1× Kinase buffer was prepared. […] 10 μL of the 2.5× final concentration kinase solution was added to the compound wells and the positive control wells, and 10 μL of 1× Kinase buffer was added to the negative control wells. The plate was centrifuged at 1000 rpm for 30 seconds, vortexed for mixing, and then incubated at room temperature for 10 minutes. A mixture of 5/3× final concentration of ATP and Kinase Substrate 22 was prepared using 1× Kinase buffer. 15 μL of the mixture of the 5/3× final concentration ATP and the substrate was added to initiate the reaction, the 384-well plate was centrifuged at 1000 rpm for 30 seconds, vortexed for mixing, and incubated at room temperature for the required time. 30 μL of the termination solution was added to stop the kinase reaction, the plate was centrifuged at 1000 rpm for 30 seconds, and vortexed for mixing. The conversion rate was measured using the Caliper EZ Reader.

Assay [2] concerns the target High affinity nerve growth factor receptor (Homo sapiens, UniProt P04629). The description is as above. How it is done:
as §1

High affinity nerve growth factor receptor NTRK1 [F589L], sequence (P04629 33-796 F589L limits assumed): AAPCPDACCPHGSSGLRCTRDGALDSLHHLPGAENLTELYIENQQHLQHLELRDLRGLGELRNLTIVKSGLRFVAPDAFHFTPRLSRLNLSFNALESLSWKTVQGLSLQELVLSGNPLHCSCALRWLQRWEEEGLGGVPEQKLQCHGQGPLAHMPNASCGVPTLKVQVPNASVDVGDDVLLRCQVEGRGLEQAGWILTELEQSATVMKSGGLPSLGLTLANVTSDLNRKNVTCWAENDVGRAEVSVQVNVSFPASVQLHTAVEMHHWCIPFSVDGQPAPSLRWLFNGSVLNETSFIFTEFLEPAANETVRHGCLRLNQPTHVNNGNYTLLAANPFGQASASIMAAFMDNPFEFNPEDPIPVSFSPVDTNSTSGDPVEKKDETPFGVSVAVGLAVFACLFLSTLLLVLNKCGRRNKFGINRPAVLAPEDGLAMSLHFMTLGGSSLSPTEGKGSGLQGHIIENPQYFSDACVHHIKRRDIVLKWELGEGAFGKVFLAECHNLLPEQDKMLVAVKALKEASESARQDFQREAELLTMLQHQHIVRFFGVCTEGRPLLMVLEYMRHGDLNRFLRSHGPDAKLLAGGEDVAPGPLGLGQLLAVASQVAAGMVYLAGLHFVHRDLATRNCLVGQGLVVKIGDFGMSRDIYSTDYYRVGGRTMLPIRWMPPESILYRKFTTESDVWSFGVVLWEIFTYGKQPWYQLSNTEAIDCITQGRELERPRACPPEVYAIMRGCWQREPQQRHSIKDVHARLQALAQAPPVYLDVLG
High affinity nerve growth factor receptor, sequence (P04629 whole entry): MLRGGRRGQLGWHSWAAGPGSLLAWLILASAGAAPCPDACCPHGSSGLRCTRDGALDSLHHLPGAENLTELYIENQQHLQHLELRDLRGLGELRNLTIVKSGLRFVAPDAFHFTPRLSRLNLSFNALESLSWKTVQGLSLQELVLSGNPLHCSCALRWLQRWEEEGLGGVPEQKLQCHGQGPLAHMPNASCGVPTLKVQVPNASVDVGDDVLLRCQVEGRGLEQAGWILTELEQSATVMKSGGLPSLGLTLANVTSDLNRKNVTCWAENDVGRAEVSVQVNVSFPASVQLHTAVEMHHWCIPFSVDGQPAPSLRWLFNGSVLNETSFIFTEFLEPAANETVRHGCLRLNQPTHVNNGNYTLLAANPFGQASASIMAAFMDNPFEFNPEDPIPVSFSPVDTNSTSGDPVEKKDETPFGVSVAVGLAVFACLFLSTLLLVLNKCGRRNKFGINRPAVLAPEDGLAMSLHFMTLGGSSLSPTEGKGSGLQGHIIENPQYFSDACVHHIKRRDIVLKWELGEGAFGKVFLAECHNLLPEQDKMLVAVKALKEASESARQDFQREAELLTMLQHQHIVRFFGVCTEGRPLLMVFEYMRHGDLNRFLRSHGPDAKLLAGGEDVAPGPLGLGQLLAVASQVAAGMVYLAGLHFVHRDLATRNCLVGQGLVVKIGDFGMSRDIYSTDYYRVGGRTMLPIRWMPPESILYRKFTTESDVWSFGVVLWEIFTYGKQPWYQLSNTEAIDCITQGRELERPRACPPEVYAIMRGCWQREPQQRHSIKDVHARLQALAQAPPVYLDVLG

Take `Fc1cnc2c(c1)[C@H]1C[C@H](F)CN1c1ccc3ncc(n3n1)-c1cc(cnn1)CO2` [US20260028352, Example I-62]: the IC50 in assay [1] was under 5 nM; in assay [2] it was under 3 nM.

Consider `Fc1ccc2c(c1)[C@H]1CCCN1c1ccc3ncc(n3n1)-c1cc(cnn1)CCO2` [US20260028352, Example I-85], for which the half-inhibitory concentration (IC50) in assay [1] was under 5 nM; in assay [2], under 3 nM.

Regarding `Fc1cnc2c(c1)[C@H]1CCCN1c1ccc3ncc(n3n1)-c1cc(cnn1)CCO2` [US20260028352, Example I-87], the IC50 in assay [1] was under 5 nM; in assay [2] it was under 3 nM.

Regarding `C[C@H]1Nc2ccc3ncc(n3n2)-c2cc(ncn2)CCOc2ccc(F)cc21` [US20260028352, Example I-74], the IC50 in assay [1] was under 5 nM; in assay [2], under 3 nM.
